IC50 data for 32 compounds are collected here from patent publication US9586951B2 (FUJIFILM Corporation, priority 2013, dated 2017).

Molecules are shown by their SMILES. pIC50: −log10 of the molar value.

In the assay the target is T1, ATM (Homo sapiens, UniProt Q13315).
T1 construct: detecting phosphorylation of Chk2 in a human non-small cell lung cancer cell line NCI-H460 (ATCC company); host or cells: NCI-H460 human non-small cell lung cancer cells
T1 sequence (Q13315 whole entry): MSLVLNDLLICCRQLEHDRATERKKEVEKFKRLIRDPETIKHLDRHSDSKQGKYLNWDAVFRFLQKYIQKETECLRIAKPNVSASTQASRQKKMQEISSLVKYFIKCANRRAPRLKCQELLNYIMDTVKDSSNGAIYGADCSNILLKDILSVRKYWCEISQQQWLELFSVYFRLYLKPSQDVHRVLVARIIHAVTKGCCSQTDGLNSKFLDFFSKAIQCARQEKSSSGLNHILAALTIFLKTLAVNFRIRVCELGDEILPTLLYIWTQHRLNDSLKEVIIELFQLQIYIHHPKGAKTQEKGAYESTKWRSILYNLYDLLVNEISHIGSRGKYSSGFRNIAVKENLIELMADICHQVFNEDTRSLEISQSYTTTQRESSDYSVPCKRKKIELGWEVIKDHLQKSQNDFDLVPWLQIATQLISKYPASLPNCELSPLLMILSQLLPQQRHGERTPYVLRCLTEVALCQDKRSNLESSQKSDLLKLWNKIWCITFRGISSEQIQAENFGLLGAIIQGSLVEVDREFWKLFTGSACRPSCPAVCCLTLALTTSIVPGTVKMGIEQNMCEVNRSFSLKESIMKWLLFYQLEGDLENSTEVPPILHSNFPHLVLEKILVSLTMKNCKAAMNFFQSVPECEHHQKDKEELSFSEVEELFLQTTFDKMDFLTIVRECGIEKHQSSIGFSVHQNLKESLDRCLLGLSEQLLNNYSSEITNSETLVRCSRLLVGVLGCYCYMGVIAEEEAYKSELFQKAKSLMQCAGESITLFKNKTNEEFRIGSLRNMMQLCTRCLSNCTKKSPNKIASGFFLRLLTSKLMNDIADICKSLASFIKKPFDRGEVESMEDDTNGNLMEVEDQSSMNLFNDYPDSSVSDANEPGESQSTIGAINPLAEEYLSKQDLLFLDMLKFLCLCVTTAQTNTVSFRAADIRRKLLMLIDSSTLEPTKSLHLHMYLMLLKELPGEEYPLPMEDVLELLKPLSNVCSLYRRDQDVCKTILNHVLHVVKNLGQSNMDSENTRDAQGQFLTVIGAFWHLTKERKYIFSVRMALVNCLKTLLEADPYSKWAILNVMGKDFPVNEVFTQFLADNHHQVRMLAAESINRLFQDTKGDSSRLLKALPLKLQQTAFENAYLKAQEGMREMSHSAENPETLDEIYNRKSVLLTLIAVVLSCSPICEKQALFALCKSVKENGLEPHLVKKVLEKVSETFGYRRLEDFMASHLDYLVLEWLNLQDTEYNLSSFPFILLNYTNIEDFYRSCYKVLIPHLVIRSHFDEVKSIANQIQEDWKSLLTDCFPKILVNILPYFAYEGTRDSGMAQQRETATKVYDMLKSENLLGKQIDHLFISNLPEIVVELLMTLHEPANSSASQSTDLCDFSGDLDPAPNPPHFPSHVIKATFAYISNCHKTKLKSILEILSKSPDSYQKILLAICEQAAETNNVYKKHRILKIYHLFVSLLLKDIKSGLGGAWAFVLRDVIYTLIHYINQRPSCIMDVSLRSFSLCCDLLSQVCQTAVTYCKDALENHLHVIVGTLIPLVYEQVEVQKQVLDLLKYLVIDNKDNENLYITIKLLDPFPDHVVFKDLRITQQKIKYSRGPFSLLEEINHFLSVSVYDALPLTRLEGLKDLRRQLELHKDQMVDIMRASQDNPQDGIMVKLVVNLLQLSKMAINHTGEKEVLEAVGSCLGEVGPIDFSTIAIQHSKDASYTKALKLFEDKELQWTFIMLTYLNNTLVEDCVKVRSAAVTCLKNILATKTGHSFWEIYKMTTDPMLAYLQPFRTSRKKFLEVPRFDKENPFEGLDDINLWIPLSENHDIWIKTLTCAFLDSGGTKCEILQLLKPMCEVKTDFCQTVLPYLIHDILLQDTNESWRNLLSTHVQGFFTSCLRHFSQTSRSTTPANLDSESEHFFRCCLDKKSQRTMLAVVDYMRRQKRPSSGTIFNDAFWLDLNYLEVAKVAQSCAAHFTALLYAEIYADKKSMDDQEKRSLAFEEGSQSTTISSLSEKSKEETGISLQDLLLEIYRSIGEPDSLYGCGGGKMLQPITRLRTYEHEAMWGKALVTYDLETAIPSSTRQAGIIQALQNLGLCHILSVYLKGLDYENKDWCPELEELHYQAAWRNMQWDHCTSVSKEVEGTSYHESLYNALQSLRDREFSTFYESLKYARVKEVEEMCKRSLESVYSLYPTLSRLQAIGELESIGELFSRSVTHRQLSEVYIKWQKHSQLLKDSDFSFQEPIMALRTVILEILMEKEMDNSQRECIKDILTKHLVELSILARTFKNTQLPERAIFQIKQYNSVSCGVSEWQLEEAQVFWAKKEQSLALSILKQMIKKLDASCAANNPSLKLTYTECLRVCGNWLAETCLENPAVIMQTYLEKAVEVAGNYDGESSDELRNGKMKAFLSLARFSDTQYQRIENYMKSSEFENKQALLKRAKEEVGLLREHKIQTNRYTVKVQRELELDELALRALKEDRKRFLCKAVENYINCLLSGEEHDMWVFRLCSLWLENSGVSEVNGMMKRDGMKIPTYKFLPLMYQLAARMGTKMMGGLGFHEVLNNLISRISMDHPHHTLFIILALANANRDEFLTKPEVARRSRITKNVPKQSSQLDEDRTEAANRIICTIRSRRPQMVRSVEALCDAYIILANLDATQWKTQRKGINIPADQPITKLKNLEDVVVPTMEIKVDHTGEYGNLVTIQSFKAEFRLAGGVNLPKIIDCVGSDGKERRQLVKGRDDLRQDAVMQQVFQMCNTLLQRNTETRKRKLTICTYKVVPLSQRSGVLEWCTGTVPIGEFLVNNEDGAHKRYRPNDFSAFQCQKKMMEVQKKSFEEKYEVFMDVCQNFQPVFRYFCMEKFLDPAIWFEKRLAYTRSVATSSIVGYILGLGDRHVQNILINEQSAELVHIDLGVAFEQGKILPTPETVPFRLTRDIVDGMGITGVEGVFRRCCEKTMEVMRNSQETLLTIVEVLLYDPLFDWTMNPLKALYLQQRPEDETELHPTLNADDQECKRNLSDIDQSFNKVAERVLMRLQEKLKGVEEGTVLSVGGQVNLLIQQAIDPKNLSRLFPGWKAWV
The assay can be described thus: ATM inhibition test (phosphorylation of Chk2 generated by ionizing radiation, AlphaScreen SureFire). Format: cell-based. The note with it: phosphorylated Chk2 in NCI-H460 cells, ionizing radiation 8Gy, 1 hour after test compound treatment; read-out: ATM inhibitory activity. The essentials: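 In NCI-H460 cells, radiation-triggered Chk2 phosphorylation (8Gy, 1 h) is detected by AlphaScreen SureFire following 1 h compound exposure.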
For the compound `O=c1cc(N2CCOCC2)cc(-c2nccc3c2Oc2ccc(NCc4cncc(C5CC5)c4)cc2C3)[nH]1` [Example 2-41-11, 6-(7-(((5-Cyclopropylpyridin-3-yl)methyl)amino)-5H-chromeno[2,3-c]pyridin-1-yl)-4-morpholino pyridin-2(1H)-one], the pIC50 is 6.30 to 7.00.

In the case of `CC(C)(C)NCCNc1ccc2c(c1)Sc1cccc(-c3cc(N4CCOCC4)cc(=O)[nH]3)c1S2` [Example 1-10-13, 6-(7-((2-(tert-Butylamino)ethyl)amino)thianthren-1-yl)-4-morpholino pyridin-2 (1H)-one], the pIC50 is 5.70 to 6.30.

On to `CCCC(Nc1ccc2c(c1)Sc1cccc(-c3cc(N4CCOCC4)cc(=O)[nH]3)c1O2)c1cncc(OC)c1` (centres unmarked) [Example 4-4-26, 6-(8-((1-(5-Methoxypyridin-3-yl)butyl)amino)phenoxathiin-4-yl)-4-morpholino pyridin-2(1H)-one], for which the pIC50 is 6.30 to 7.00.

In the case of `O=c1cc(N2CCOCC2)cc(-c2cccc3c2Sc2ccc(NCc4nccs4)cc2S3)[nH]1` [Example 1-12-52, 4-Morpholino-6-(7-((thiazol-2-ylmethyl)amino)thianthren-1-yl) pyridin-2 (1H)-one], the pIC50 is 6.30 to 7.00.

As for `O=c1cc(N2CCOCC2)cc(-c2cccc3c2Sc2ccc(NCCCCN4CCOCC4)cc2S3)[nH]1` [Example 1-9-4, 4-Morpholino-6-(7-((4-morpholinobutyl)amino)thianthren-1-yl)pyridin-2(1H)-one], the pIC50 is 6.30 to 7.00.

Consider `O=c1cc(N2CCOCC2)cc(-c2cccc3c2Sc2ccc(NCCN4CCCC4)cc2S3)[nH]1` [Example 1-10-11], for which the pIC50 was 6.30 to 7.00.

For the compound `CC(CN1CC2(COC2)C1)Nc1ccc2c(c1)Sc1cccc(-c3cc(N4CCOCC4)cc(=O)[nH]3)c1S2` (centres unmarked) [Example 1-43-2, 6-(7-((1-(2-Oxa-6-azaspiro [3.3]heptan-6-yl)propan-2-yl)amino)thianthren-1-yl)-4-morpholino pyridin-2(1H)-one], the pIC50 was 6.30 to 7.00.

As to `O=c1cc(N2CCOCC2)cc(-c2cc(F)cc3c2Oc2ccc(NCc4cncc(Cl)c4)cc2C3)[nH]1` [Example 2-48-3, 6-(7-(((5-Chloropyridin-3-yl)methyl)amino)-2-fluoro-9H-xanthen-4-yl)-4-morpholinopyridin-2(1H)-one], the pIC50 was 6.30 to 7.00.

For the compound `O=c1cc(N2CCOCC2)cc(-c2cccc3c2Oc2ccc([N+](=O)[O-])cc2S3)[nH]1` [Example 4-1, 4-Morpholino-6-(8-nitrophenoxathiin-4-yl)pyridin-2(1H)-one], the pIC50 is 5.70 to 6.30.

`COc1ncc(C(C)Nc2ccc3c(c2)Cc2cccc(-c4cc(N5CCOCC5)cc(=O)[nH]4)c2O3)cn1` (centres unmarked) [Example 2-14-55, 6-(7-((1-(2-Methoxypyrimidin-5-yl)ethyl)amino)-9H-xanthen-4-yl)-4-morpholino pyridin-2 (1H)-one]: the pIC50 is 6.30 to 7.00.

`O=c1cc(N2CCOCC2)cc(-c2cccc3c2Oc2ccc(NC4CCN(Cc5ccccn5)CC4)cc2C3)[nH]1` [Example 2-28-1, 4-Morpholino-6-(7-((1-(pyridin-2-ylmethyl)piperidin-4-yl)amino)-9H-xanthen-4-yl)pyridin-2 (1H)-one]: the pIC50 is 5.70 to 6.30.

With `CC(CN1CCC(F)(F)C1)Nc1ccc2c(c1)Sc1cccc(-c3cc(N4CCOCC4)cc(=O)[nH]3)c1S2` (centres unmarked) [Example 1-43-7, 6-(7-((1-(3,3-Difluoropyrrolidin-1-yl)propan-2-yl)amino)thianthren-1-yl)-4-morpholino pyridin-2(1H)-one], the pIC50 was 6.30 to 7.00.

As for `O=c1cc(N2CCOCC2)cc(-c2cccc3c2Oc2ccc(NC4CCN(c5ccncc5)CC4)cc2C3)[nH]1` [Example 2-2-22, 4-Morpholino-6-(7-((1-(pyridin-4-yl)piperidin-4-yl)amino)-9H-xanthen-4-yl) pyridin-2(1H)-one], the pIC50 was above 7.00.

For the compound `Cc1ccc(C(CC2CCCCC2)Nc2ccc3c(c2)Sc2cccc(-c4cc(N5CCOCC5)cc(=O)[nH]4)c2S3)nc1` (centres unmarked) [Example 1-12-129, 6-(7-((2-Cyclohexyl-1-(5-methylpyridin-2-yl)ethyl)amino)thianthren-1-yl)-4-morpholino pyridin-2(1H) one], the pIC50 was 5.70 to 6.30.

As for `O=c1cc(N2CCOCC2)cc(-c2cccc3c2Sc2ccc(NC4CCCN(C5CCCCC5)C4)cc2S3)[nH]1` (centres unmarked) [Example 1-24-1, 6-(7-((1-Cyclohexylpiperidin-3-yl)amino)thianthren-1-yl)-4-morpholinopyridin-2(1H)-one], the pIC50 is 6.30 to 7.00.

As for `Cc1cccc(CN(CC(=O)O)c2ccc3c(c2)Cc2cccc(-c4cc(N5CCOCC5)cc(=O)[nH]4)c2O3)n1` [Example 2-17, 2-(((6-methylpyridin-2-yl)methyl)(5-(4-morpholino-6-oxo-1,6-dihydropyridin-2-yl)-9H-xanthen-2-yl)amino)acetic acid], the pIC50 is 5.70 to 6.30.

For `Cc1ccnc(CN2CCC(Nc3ccc4c(c3)Cc3cccc(-c5cc(N6CCOCC6)cc(=O)[nH]5)c3O4)CC2)c1` [Example 2-28-19, 6-(7-((1-((4-Methylpyridin-2-yl)methyl)piperidin-4-yl)amino)-9H-xanthen-4-yl)-4-morpholino pyridin-2(1H)-one], the pIC50 was 6.30 to 7.00.

`CCCC(Nc1ccc2c(c1)Sc1cccc(-c3cc(N4CCOCC4)cc(=O)[nH]3)c1S2)[C@H](C)N1CCOCC1` (stereo partly drawn) [Example 1-21-1, 6-(7-(((2S)-2-morpholinohexan-3-yl)amino)thianthren-1-yl)-4-morpholinopyridin-2(1H)-one]: the pIC50 is 6.30 to 7.00.

On to `Nc1cccc2c1Sc1cccc(-c3cc(N4CCOCC4)cc(=O)[nH]3)c1O2` [Example 4-3, 6-(9-Aminophenoxathiin-4-yl)-4-morpholinopyridin-2(1H)-one], for which the pIC50 was 6.30 to 7.00.

For `Cc1cncc(CNc2ccc3c(c2)Cc2cccc(-c4cc(N5CCOCC5)cc(=O)[nH]4)c2O3)n1` [Example 2-14-74, 6-(7-(((6-Methylpyrazin-2-yl)methyl)amino)-9H-xanthen-4-yl)-4-morpholino pyridin-2(1H)-one], the pIC50 was 6.30 to 7.00.

As to `CC(Nc1ccc2c(c1)Sc1cccc(-c3cc(N4CCOCC4)cc(=O)[nH]3)c1S2)c1cccc(CN2CCCCC2)n1` (centres unmarked) [Example 1-12-109, 4-Morpholino-6-(7-((1-(6-(piperidin-1-ylmethyl)pyridin-2-yl)ethyl)amino)thianthren-1-yl)pyridin-2 (1H)-one], the pIC50 was 6.30 to 7.00.

As for `COc1ccc(CNc2ccc3c(c2)Cc2cccc(-c4cc(N5CCOCC5)cc(=O)[nH]4)c2O3)cc1` [Example 2-40, 6-(7-((4-methoxybenzyl)amino)-9H-xanthen-4-yl)-4-morpholinopyridin-2(1H)-one], the pIC50 was 6.30 to 7.00.

For `Cc1ccc(C(CCN2CCCCC2)Nc2ccc3c(c2)Sc2cccc(-c4cc(N5CCOCC5)cc(=O)[nH]4)c2S3)nc1` (single isomer, unassigned) [Example 1-51-6, 6-(7-((1-(5-Methylpyridin-2-yl)-3-(piperidin-1-yl)propyl)amino)thianthren-1-yl)-4-morpholino pyridin-2(1H)-one], the pIC50 is above 7.00.

Regarding `CC(Nc1ccc2c(c1)Cc1cccc(-c3cc(N4CCOCC4)cc(=O)[nH]3)c1O2)c1ccncn1` (centres unmarked) [Example 2-14-50, 4-Morpholino-6-(7-((1-(pyrimidin-4-yl)ethyl)amino)-9H-xanthen-4-yl) pyridin-2(1H)-one], the pIC50 is 5.70 to 6.30.

As for `Cc1ccc(C(CCN2CCOCC2)Nc2ccc3c(c2)Sc2cccc(-c4cc(N5CCOCC5)cc(=O)[nH]4)c2S3)nc1` (single isomer, unassigned) [Example 1-51-7, 6-(7-((1-(5-Methylpyridin-2-yl)-3-morpholinopropyl)amino)thianthren-1-yl)-4-morpholino pyridin-2(1H)-one], the pIC50 is above 7.00.

In the case of `O=c1cc(N2CCOCC2)cc(-c2cccc3c2Sc2ccc(NCCN4CCC(F)(F)CC4)cc2S3)[nH]1` [Example 1-10-1, 6-(7-((2-(4,4-Difluoropiperidin-1-yl)ethyl)amino)thianthren-1-yl)-4-morpholinopyridin-2(1H)-one], the pIC50 was 6.30 to 7.00.

Turning to `COCCN1CCOC(C(Nc2ccc3c(c2)Sc2cccc(-c4cc(N5CCOCC5)cc(=O)[nH]4)c2S3)c2ccc(C)cn2)C1` (single isomer, unassigned) [Example 1-56-9, 6-(7-(((4-(2-Methoxyethyl)morpholin-2-yl)(5-methylpyridin-2-yl)methyl)amino)thianthren-1-yl)-4-morpholino pyridin-2(1H)-one], the pIC50 was above 7.00.

As to `N#Cc1ccc(CNc2ccc3c(c2)Cc2ccnc(-c4cc(N5CCOCC5)cc(=O)[nH]4)c2O3)s1` [Example 2-41-17, 5-(((1-(4-Morpholino-6-oxo-1,6-dihydropyridin-2-yl)-5H-chromeno[2,3-c]pyridin-7-yl)amino)methyl)thiophene-2-carbonitrile], the pIC50 is 6.30 to 7.00.

In the case of `O=c1cc(N2CCOCC2)cc(-c2cccc3c2Oc2ccc(NCc4cncc(C5CC5)c4)cc2S3)[nH]1` [Example 4-8-7, 6-(8-(((5-Cyclopropylpyridin-3-yl)methyl)amino)phenoxathiin-4-yl)-4-morpholino pyridin-2(1H)-one], the pIC50 was 6.30 to 7.00.

In the case of `CC(Nc1ccc2c(c1)Cc1cccc(-c3cc(N4CCOCC4)cc(=O)[nH]3)c1O2)c1ncccn1` (centres unmarked) [Example 2-14-78, 4-Morpholino-6-(7-((1-(pyrimidin-2-yl)ethyl)amino)-9H-xanthen-4-yl) pyridin-2(1H)-one], the pIC50 is 6.30 to 7.00.

For the compound `COc1cccnc1CNc1ccc2c(c1)Cc1ccnc(-c3cc(N4CCOCC4)cc(=O)[nH]3)c1O2` [Example 2-41-12, 6-(7-(((3-Methoxypyridin-2-yl)methyl)amino)-5H-chromeno [2,3-c]pyridin-1-yl)-4-morpholino pyridin-2(1H)-one], the pIC50 is 5.70 to 6.30.

With `CC(Nc1ccc2c(c1)Cc1cccc(-c3cc(N4CCOCC4)cc(=O)[nH]3)c1O2)c1nccc(CF)n1` (centres unmarked) [Example 2-14-64, 6-(7-((1-(4-(Fluoromethyl)pyrimidin-2-yl)ethyl)amino)-9H-xanthen-4-yl)-4-morpholino pyridin-2(1H)-one], the pIC50 was 6.30 to 7.00.
